Experimental data taken from patent publication US8853420B2, “Compounds” (Boehringer Ingelheim International GmbH, priority 2008, dated 2014).

Biological target: T1, Xenopus laevis Aurora B/INCENP complex (Xenopus laevis, UniProt Q6DE08)
T1 construct: equipped at the N-terminal position with a GST tag (amino acids 60-361); GST (N, cleaved yes); made in house; host or cells: E. coli BL21 (DE3)
Assay: Aurora-B kinase assay (radioactive enzyme inhibition assay)
Assay type: biochemical
Settings: test substance at 1 μM; percentage of the positive control (maximum value without test substance)
Text: Example Aurora-B Kinase Assay
A radioactive enzyme inhibition assay was developed using E. coli-expressed recombinant Xenopus laevis Aurora B wild-type protein equipped at the N-terminal position with a GST tag (amino acids 60-361) in a complex with Xenopus laevis INCENP (amino acids 790-847), which is obtained from bacteria and purified. In equivalent manner a Xenopus laevis Aurora B mutant (G96V) in a complex with Xenopus laevis INCENP^790-847 may also be used.
Expression and Purification
The coding sequence for Aurora-B^60-361 from Xenopus laevis is cloned into a modified version of pGEX-6T (Amersham Biotech) via BamHI and SalI cutting sites. The vector contains two cloning cassettes which are separated by a ribosomal binding site, allowing bi-cistronic expression. In this configuration Xenopus laevis Aurora B is expressed by the first cassette, and the Xenopus laevis INCENP^790-847 is expressed by the second cassette. The resulting vector is pAUB-IN^847.
First of all the E. coli strain BL21 (DE3) is co-transformed with pUBS520 helper plasmid and pAUB-IN^847, after which protein expression is induced using 0.3 mM IPTG at an OD600 of 0.45-0.7. The expression is then continued for approx. 12-16 h at 23-25° C. with agitation.
The bacteria are then removed by centrifuging and the pellet is lysed in lysis buffer (50 mM Tris/Cl pH 7.6, 300 mM NaCl, 1 mM DTT, 1 mM EDTA, 5% glycerol, Roche Complete Protease Inhibitor tablets) using ultrasound, using 20-30 mL lysis buffer per liter of E. coli culture. The lysed material is freed from debris by centrifugation (12000 rpm, 45-60 min, JA20 rotor). The supernatant is incubated with 300 μL of equilibrated GST Sepharose Fast Flow (Amersham Biosciences) per liter of E. coli culture for 4-5 h at 4° C. Then the column material is washed with 30 volumes of lysis buffer and then equilibrated with 30 volumes of cleavage buffer (50 mM Tris/Cl pH 7.6, 150 mM NaCl, 1 mM DTT, 1 mM EDTA). To cleave the GST tag from Aurora B, 10 units of Prescission Protease (Amersham Biosciences) are used per milligram of substrate and the mixture is incubated for 16 h at 4° C. The supernatant which contains the cleavage product is loaded onto a 6 mL Resource Q column (Amersham Biosciences) equilibrated with ion exchange buffer (50 mM Tris/Cl pH 7.6, 150 mM NaCl, 1 mM DTT, 1 mM EDTA). The Aurora B/INCENP complex is caught as it flows through, then concentrated and loaded onto a Superdex 200 size exclusion chromatography (SEC) column equilibrated with SEC buffer (10 mM Tris/Cl pH 7.6, 150 mM NaCl, 1 mM DTT, 1 mM EDTA). Fractions which contain the AuroraB/INCENP complex are collected and concentrated using Vivaspin concentrators (molecular weight exclusion 3000-5000 Da) to a final concentration of 12 mg/mL. Aliquots (e.g. 240 ng/μL) for kinase assays are transferred from this stock solution into freezing buffer (50 mM Tris/Cl pH 8.0, 150 mM NaCl, 0.1 mM EDTA, 0.03% Brij-35, 10% glycerol, 1 mM DTT) and stored at −80° C.
Test substances are placed in a polypropylene dish (96 wells, Greiner #655 201), in order to cover a concentration frame of 10 μM-0.0001 μM. The final concentration of DMSO in the assay is 5%. 30 μL of protein mix (50 mM tris/Cl pH 7.5, 25 mM MgCl2, 25 mM NaCl, 167 μM ATP, 10 ng Xenopus laevis Aurora B/INCENP complex in freezing buffer) are pipetted into the 10 μl of test substance provided in 25% DMSO and this is incubated for 15 min at RT. Then 10 μL of peptide mix (100 mM tris/Cl pH 7.5, 50 mM MgCl2, 50 mM NaCl, 5 μM NaF, 5 μM DTT, 1 μCi gamma-P33-ATP [Amersham], 50 μM substrate peptide [biotin-[…] or multimers thereof, or biotin-[…] or multimers thereof, or biotin-[…]]) are added. The reaction is incubated for 75 min (ambient temperature) and stopped by the addition of 180 μL of 6.4% trichloroacetic acid and incubated for 20 min on ice. […]

T1 sequence (Q6DE08 60-361): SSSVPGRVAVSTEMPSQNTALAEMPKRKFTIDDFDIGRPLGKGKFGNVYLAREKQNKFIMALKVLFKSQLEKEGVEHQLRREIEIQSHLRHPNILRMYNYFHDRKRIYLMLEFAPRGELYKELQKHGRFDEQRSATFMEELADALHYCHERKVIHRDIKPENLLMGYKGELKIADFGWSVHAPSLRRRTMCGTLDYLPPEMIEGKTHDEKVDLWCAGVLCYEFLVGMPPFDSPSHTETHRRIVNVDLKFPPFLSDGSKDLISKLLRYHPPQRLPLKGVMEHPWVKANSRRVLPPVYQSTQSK
T1 sequence (O13024 790-847 partner limits assumed): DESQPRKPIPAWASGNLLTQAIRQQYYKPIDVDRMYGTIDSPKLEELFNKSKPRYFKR

Structure (SMILES)	remaining activity at 1 µM [%]
CCNc1cnc(-c2ccc3c(c2)NC(=O)/C3=C(\Nc2ccc(CN(C)C)cc2)c2ccccc2)cn1 [Example 1]	15.2
CN(C)Cc1ccc(N/C(=C2\C(=O)Nc3cc(-c4cnc(NCC5CC5)cn4)ccc32)c2ccccc2)cc1 [Example 2]	12.6
CCNc1ccc(-c2ccc3c(c2)NC(=O)/C3=C(\Nc2ccc(CN(C)C)cc2)c2ccccc2)cn1 [Example 5]	7.08
CN(C)Cc1ccc(N/C(=C2\C(=O)Nc3cc(-c4ccc(N(C)C)nc4)ccc32)c2ccccc2)cc1 [Example 6]	11.4
CNc1ccc(-c2ccc3c(c2)NC(=O)/C3=C(\Nc2ccc(CN(C)C)cc2)c2ccccc2)cn1 [Example 8]	15.6
CN(C)Cc1ccc(N/C(=C2\C(=O)Nc3cc(-c4cnc(N5CCCC5)nc4)ccc32)c2ccccc2)cc1 [Example 10]	10.6
CN(C)Cc1ccc(N/C(=C2\C(=O)Nc3cc(-c4ccc(S(C)(=O)=O)cc4)ccc32)c2ccccc2)cc1 [Example 12]	40
CN(C)Cc1ccc(N/C(=C2\C(=O)Nc3cc(-c4ccc(N5CCOCC5)nc4)ccc32)c2ccccc2)cc1 [Example 14]	20.7
CN(C)Cc1ccc(N/C(=C2\C(=O)Nc3cc(-c4ccc(OCC5CC5)nc4)ccc32)c2ccccc2)cc1 [Example 15]	22
Cc1ccc(-c2ccc3c(c2)NC(=O)/C3=C(\Nc2ccc(CN(C)C)cc2)c2ccccc2)cn1 [Example 17]	21.1
Cc1cnccc1-c1ccc2c(c1)NC(=O)/C2=C(\Nc1ccc(CN(C)C)cc1)c1ccccc1 [Example 20]	107
CN(C)Cc1ccc(N/C(=C2\C(=O)Nc3cc(-c4ccccc4NS(C)(=O)=O)ccc32)c2ccccc2)cc1 [Example 23]	70.6
CN(C)Cc1ccc(N/C(=C2\C(=O)Nc3cc(-c4cccc(C#N)c4)ccc32)c2ccccc2)cc1 [Example 39]	30.9
CN(C)Cc1ccc(N/C(=C2\C(=O)Nc3cc(-c4cnc5ccccc5c4)ccc32)c2ccccc2)cc1 [Example 40]	34.7
CC(=O)c1cncc(-c2ccc3c(c2)NC(=O)/C3=C(\Nc2ccc(CN(C)C)cc2)c2ccccc2)c1 [Example 41]	13.5
CN(C)Cc1ccc(N/C(=C2\C(=O)Nc3cc(-c4cnc(C(=O)O)nc4)ccc32)c2ccccc2)cc1 [Example 42]	139
CN(C)Cc1ccc(N/C(=C2\C(=O)Nc3cc(-c4ccc(C(N)=O)cc4)ccc32)c2ccccc2)cc1 [Example 43]	102
CN(C)Cc1ccc(N/C(=C2\C(=O)Nc3cc(-c4cnc(N(C)C)nc4)ccc32)c2ccccc2)cc1 [Example 44]	27.9
CN(C)Cc1ccc(N/C(=C2\C(=O)Nc3cc(-c4cnc(NC5CCC5)nc4)ccc32)c2ccccc2)cc1 [Example 45]	1.76
CC(C)Nc1ncc(-c2ccc3c(c2)NC(=O)/C3=C(\Nc2ccc(CN(C)C)cc2)c2ccccc2)cn1 [Example 46]	2.13
CN(C)Cc1ccc(N/C(=C2\C(=O)Nc3cc(-c4cnc(NCC(F)F)nc4)ccc32)c2ccccc2)cc1 [Example 47]	1.59
CN(C)Cc1ccc(N/C(=C2\C(=O)Nc3cc(-c4cnc(NC5CC5)nc4)ccc32)c2ccccc2)cc1 [Example 48]	3.44
CCCNc1ncc(-c2ccc3c(c2)NC(=O)/C3=C(\Nc2ccc(CN(C)C)cc2)c2ccccc2)cn1 [Example 50]	2.79
CN(C)Cc1ccc(N/C(=C2\C(=O)Nc3cc(-c4cnc(NCC5CC5)nc4)ccc32)c2ccccc2)cc1 [Example 51]	3.84

Further lines, results first:

remaining activity at 1 µM [%]	Structure (SMILES)
2.78	CCNc1ncc(-c2ccc3c(c2)NC(=O)/C3=C(\Nc2ccc(CN(C)C)cc2)c2ccccc2)cn1 [Example 52]
157	CN(C)Cc1ccc(N/C(=C2\C(=O)Nc3cc(-c4ccc(C(=O)O)nc4)ccc32)c2ccccc2)cc1 [Example 54]
5.91	CN(C)Cc1ccc(N/C(=C2\C(=O)Nc3cc(-c4ccc(NCC5CC5)nc4)ccc32)c2ccccc2)cc1 [Example 55]
5.45	CN(C)Cc1ccc(N/C(=C2\C(=O)Nc3cc(-c4ccc(NC5CCC5)nc4)ccc32)c2ccccc2)cc1 [Example 56]
5.74	CCCNc1ccc(-c2ccc3c(c2)NC(=O)/C3=C(\Nc2ccc(CN(C)C)cc2)c2ccccc2)cn1 [Example 57]
8.01	CC(C)Nc1ccc(-c2ccc3c(c2)NC(=O)/C3=C(\Nc2ccc(CN(C)C)cc2)c2ccccc2)cn1 [Example 58]
9.19	CN(C)Cc1ccc(N/C(=C2\C(=O)Nc3cc(-c4ccc(NC5CC5)nc4)ccc32)c2ccccc2)cc1 [Example 59]
26.3	CN(C)Cc1ccc(N/C(=C2\C(=O)Nc3cc(-c4ccc5c(c4)CC(=O)N5)ccc32)c2ccccc2)cc1 [Example 60]
14.1	CN(C)Cc1ccc(N/C(=C2\C(=O)Nc3cc(-c4cn[nH]c4)ccc32)c2ccccc2)cc1 [Example 61]
1.96	CC(=O)Nc1ccc(-c2ccc3c(c2)NC(=O)/C3=C(\Nc2ccc(CN(C)C)cc2)c2ccccc2)cn1 [Example 62]
11	COc1cncc(-c2ccc3c(c2)NC(=O)/C3=C(\Nc2ccc(CN(C)C)cc2)c2ccccc2)c1 [Example 63]
13.4	CN(C)Cc1ccc(N/C(=C2\C(=O)Nc3cc(-c4cccc(-n5cccn5)c4)ccc32)c2ccccc2)cc1 [Example 64]
27.6	CN(C)Cc1ccc(N/C(=C2\C(=O)Nc3cc(-c4cccc(S(=O)(=O)N(C)C)c4)ccc32)c2ccccc2)cc1 [Example 65]
18.3	CN(C)Cc1ccc(N/C(=C2\C(=O)Nc3cc(-c4ccc(N)nc4)ccc32)c2ccccc2)cc1 [Example 66]
5.48	CN(C)Cc1ccc(N/C(=C2\C(=O)Nc3cc(-c4cccc(S(N)(=O)=O)c4)ccc32)c2ccccc2)cc1 [Example 67]
18.1	CN(C)Cc1ccc(N/C(=C2\C(=O)Nc3cc(-c4cccc(C(N)=O)c4)ccc32)c2ccccc2)cc1 [Example 68]
17.2	CC(=O)Nc1cccc(-c2ccc3c(c2)NC(=O)/C3=C(\Nc2ccc(CN(C)C)cc2)c2ccccc2)c1 [Example 69]
17.3	COc1ccc(-c2ccc3c(c2)NC(=O)/C3=C(\Nc2ccc(CN(C)C)cc2)c2ccccc2)cn1 [Example 70]
24.5	CN(C)Cc1ccc(N/C(=C2\C(=O)Nc3cc(-c4cccnc4)ccc32)c2ccccc2)cc1 [Example 71]
3.37	CC(=O)Nc1ccc(-c2ccc3c(c2)NC(=O)/C3=C(\Nc2ccc(CN(C)C)cc2)c2ccccc2)cc1 [Example 72]
5.59	CC(C)Nc1ncc(-c2cc3c(cc2F)/C(=C(/Nc2ccc(CN(C)C)cc2)c2ccccc2)C(=O)N3)cn1 [Example 73]
1.74	CC(C)Nc1ncc(-c2ccc3c(c2)NC(=O)/C3=C(\Nc2ccc(N(C)C(=O)CN(C)C)cc2)c2ccccc2)cn1 [Example 75]
96.2	CC(C)Nc1ncc(-c2ccc3c(c2)NC(=O)/C3=C(\NC2CCOCC2)c2ccccc2)cn1 [Example 77]
